{"source": "the supplement of paper PMC10307832", "assay_in_all_cases": "relative viability (nuclei count vs DMSO), 5 days (fraction); higher = more cells survive", "key": {"[1]": {"tested_on": "NCI-H2405", "summary_of_the_method": "(§1)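 Medians of duplicate plates are given as relative viability. That measure is the nuclei count in treated wells divided by the count in vehicle wells. Counts were taken on 4× images of lung cancer cell lines in 1536-well plates, 5 days after pin-tool dosing the day after seeding with one drug alone or a fixed anchor-drug dose plus five library-drug doses (not always all listed) in √10 steps.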"}, "[2]": {"tested_on": "NCI-H1623", "summary_of_the_method": "as §1"}, "[3]": {"tested_on": "NCI-H2009", "summary_of_the_method": "as §1"}, "[4]": {"tested_on": "NCI-H1648", "summary_of_the_method": "as §1"}, "[5]": {"tested_on": "LOU-NH91", "summary_of_the_method": "as §1"}, "[6]": {"tested_on": "NCI-H647", "summary_of_the_method": "as §1"}, "[7]": {"tested_on": "Calu-6", "summary_of_the_method": "as §1"}, "[8]": {"tested_on": "A549", "summary_of_the_method": "as §1"}, "[9]": {"tested_on": "EBC-1", "summary_of_the_method": "as §1"}, "[10]": {"tested_on": "NCI-H1703", "summary_of_the_method": "as §1"}, "[11]": {"tested_on": "IA-LM", "summary_of_the_method": "as §1"}, "[12]": {"tested_on": "NCI-H1299", "summary_of_the_method": "as §1"}}}
{"smiles": "Cc1csc(=NC2CCCCC2)n1/N=C/c1ccc(O)c(O)c1O", "note": "[MIM1] + COc1cccc2cc(-c3nc([C@H]4CC[C@H](C(=O)O)CC4)n4ncnc(N)c34)[nH]c12 [OSI-027] (partner 0.5 µM)", "values": [{"measurement": "relative viability", "setting": "[1]; first compound 0.2 µM", "value": 0.638}, {"measurement": "relative viability", "setting": "[1]; first compound 0.6325 µM", "value": 0.666}, {"measurement": "relative viability", "setting": "[1]; first compound 2 µM", "value": 0.637}, {"measurement": "relative viability", "setting": "[1]; first compound 6.325 µM", "value": 0.553}, {"measurement": "relative viability", "setting": "[1]; first compound 20 µM", "value": 0.434}, {"measurement": "relative viability", "setting": "[2]; first compound 0.2 µM", "value": 0.435}, {"measurement": "relative viability", "setting": "[2]; first compound 0.6325 µM", "value": 0.416}, {"measurement": "relative viability", "setting": "[2]; first compound 2 µM", "value": 0.412}, {"measurement": "relative viability", "setting": "[2]; first compound 6.325 µM", "value": 0.36}, {"measurement": "relative viability", "setting": "[2]; first compound 20 µM", "value": 0.383}, {"measurement": "relative viability", "setting": "[3]; first compound 0.2 µM", "value": 0.697}, {"measurement": "relative viability", "setting": "[3]; first compound 0.6325 µM", "value": 0.685}, {"measurement": "relative viability", "setting": "[3]; first compound 2 µM", "value": 0.684}, {"measurement": "relative viability", "setting": "[3]; first compound 6.325 µM", "value": 0.424}, {"measurement": "relative viability", "setting": "[3]; first compound 20 µM", "value": 0.142}, {"measurement": "relative viability", "setting": "[4]; first compound 0.2 µM", "value": 0.246}, {"measurement": "relative viability", "setting": "[4]; first compound 0.6325 µM", "value": 0.272}, {"measurement": "relative viability", "setting": "[4]; first compound 2 µM", "value": 0.28}, {"measurement": "relative viability", "setting": "[4]; first compound 6.325 µM", "value": 0.275}, {"measurement": "relative viability", "setting": "[4]; first compound 20 µM", "value": 0.226}, {"measurement": "relative viability", "setting": "[5]; first compound 0.2 µM", "value": 0.721}, {"measurement": "relative viability", "setting": "[5]; first compound 0.6325 µM", "value": 0.692}, {"measurement": "relative viability", "setting": "[5]; first compound 2 µM", "value": 0.64}, {"measurement": "relative viability", "setting": "[5]; first compound 6.325 µM", "value": 0.694}, {"measurement": "relative viability", "setting": "[5]; first compound 20 µM", "value": 0.635}, {"measurement": "relative viability", "setting": "[6]; first compound 0.2 µM", "value": 0.708}, {"measurement": "relative viability", "setting": "[6]; first compound 0.6325 µM", "value": 0.658}, {"measurement": "relative viability", "setting": "[6]; first compound 6.325 µM", "value": 0.557}, {"measurement": "relative viability", "setting": "[6]; first compound 20 µM", "value": 0.43}]}
{"smiles": "Cc1csc(=NC2CCCCC2)n1/N=C/c1ccc(O)c(O)c1O", "note": "[MIM1] + COc1cc2c(Oc3ccc(NC(=O)C4(C(=O)Nc5ccc(F)cc5)CC4)cc3F)ccnc2cc1OCCCN1CCOCC1 [Foretinib] (partner 0.25 µM)", "values": [{"measurement": "relative viability", "setting": "[7]; first compound 0.2 µM", "value": 0.847}, {"measurement": "relative viability", "setting": "[7]; first compound 0.6325 µM", "value": 0.894}, {"measurement": "relative viability", "setting": "[7]; first compound 2 µM", "value": 0.816}, {"measurement": "relative viability", "setting": "[7]; first compound 6.325 µM", "value": 0.797}, {"measurement": "relative viability", "setting": "[7]; first compound 20 µM", "value": 0.318}, {"measurement": "relative viability", "setting": "[8]; first compound 0.2 µM", "value": 0.917}, {"measurement": "relative viability", "setting": "[8]; first compound 0.6325 µM", "value": 0.939}, {"measurement": "relative viability", "setting": "[8]; first compound 2 µM", "value": 1.02}, {"measurement": "relative viability", "setting": "[8]; first compound 6.325 µM", "value": 0.771}, {"measurement": "relative viability", "setting": "[8]; first compound 20 µM", "value": 0.144}, {"measurement": "relative viability", "setting": "[9]; first compound 0.2 µM", "value": 0.108}, {"measurement": "relative viability", "setting": "[9]; first compound 0.6325 µM", "value": 0.102}, {"measurement": "relative viability", "setting": "[9]; first compound 2 µM", "value": 0.119}, {"measurement": "relative viability", "setting": "[9]; first compound 6.325 µM", "value": 0.106}, {"measurement": "relative viability", "setting": "[9]; first compound 20 µM", "value": 0.119}, {"measurement": "relative viability", "setting": "[1]; first compound 0.2 µM", "value": 1.05}, {"measurement": "relative viability", "setting": "[1]; first compound 0.6325 µM", "value": 1.05}, {"measurement": "relative viability", "setting": "[1]; first compound 2 µM", "value": 1}, {"measurement": "relative viability", "setting": "[1]; first compound 6.325 µM", "value": 0.741}, {"measurement": "relative viability", "setting": "[1]; first compound 20 µM", "value": 0.866}, {"measurement": "relative viability", "setting": "[2]; first compound 0.2 µM", "value": 0.88}, {"measurement": "relative viability", "setting": "[2]; first compound 0.6325 µM", "value": 0.721}, {"measurement": "relative viability", "setting": "[2]; first compound 2 µM", "value": 0.914}, {"measurement": "relative viability", "setting": "[2]; first compound 6.325 µM", "value": 0.718}, {"measurement": "relative viability", "setting": "[2]; first compound 20 µM", "value": 0.409}, {"measurement": "relative viability", "setting": "[10]; first compound 0.2 µM", "value": 0.417}, {"measurement": "relative viability", "setting": "[10]; first compound 0.6325 µM", "value": 0.391}, {"measurement": "relative viability", "setting": "[10]; first compound 2 µM", "value": 0.375}, {"measurement": "relative viability", "setting": "[10]; first compound 6.325 µM", "value": 0.296}, {"measurement": "relative viability", "setting": "[10]; first compound 20 µM", "value": 0.181}, {"measurement": "relative viability", "setting": "[3]; first compound 0.2 µM", "value": 1.19}, {"measurement": "relative viability", "setting": "[3]; first compound 0.6325 µM", "value": 1.25}, {"measurement": "relative viability", "setting": "[3]; first compound 2 µM", "value": 1.27}, {"measurement": "relative viability", "setting": "[3]; first compound 6.325 µM", "value": 1.09}, {"measurement": "relative viability", "setting": "[3]; first compound 20 µM", "value": 0.566}, {"measurement": "relative viability", "setting": "[5]; first compound 0.2 µM", "value": 0.9}, {"measurement": "relative viability", "setting": "[5]; first compound 0.6325 µM", "value": 0.965}, {"measurement": "relative viability", "setting": "[5]; first compound 2 µM", "value": 0.833}, {"measurement": "relative viability", "setting": "[5]; first compound 6.325 µM", "value": 0.807}, {"measurement": "relative viability", "setting": "[5]; first compound 20 µM", "value": 0.39}, {"measurement": "relative viability", "setting": "[6]; first compound 0.2 µM", "value": 1.16}, {"measurement": "relative viability", "setting": "[6]; first compound 0.6325 µM", "value": 1.12}, {"measurement": "relative viability", "setting": "[6]; first compound 6.325 µM", "value": 1}, {"measurement": "relative viability", "setting": "[6]; first compound 20 µM", "value": 0.703}, {"measurement": "relative viability", "setting": "[11]; first compound 0.2 µM", "value": 1.11}, {"measurement": "relative viability", "setting": "[11]; first compound 0.6325 µM", "value": 1.29}, {"measurement": "relative viability", "setting": "[11]; first compound 2 µM", "value": 1.28}, {"measurement": "relative viability", "setting": "[11]; first compound 6.325 µM", "value": 0.842}, {"measurement": "relative viability", "setting": "[11]; first compound 20 µM", "value": 0.476}, {"measurement": "relative viability", "setting": "[12]; first compound 0.2 µM", "value": 1.15}, {"measurement": "relative viability", "setting": "[12]; first compound 0.6325 µM", "value": 1.09}, {"measurement": "relative viability", "setting": "[12]; first compound 2 µM", "value": 1.14}, {"measurement": "relative viability", "setting": "[12]; first compound 6.325 µM", "value": 1.06}, {"measurement": "relative viability", "setting": "[12]; first compound 20 µM", "value": 1.06}]}
